The structures appear in SMILES notation. Some results are limits rather than exact numbers.

The term IC50 denotes the point on the concentration scale where inhibition reaches its midpoint. Low readings indicate inhibition by little substance, high ones a need for much substance.

Assay [1] concerns the target T1, PI3Kα (wild-type) (Homo sapiens, UniProt P42336).
T1 construct: made in house; host or cells: SF9 insect cells
Description: PI3 Kinase TR-FRET assay, PI3Kα (wild-type). To be noted: wild-type P110/P85α, 10 μM ATP. It counts as biochemical. How it is done: The ability of compounds of the invention to inhibit PI3K activity was determined in a homogeneous TR-FRET assay using a PI3K assay kit (Millipore, USA; cat #33-016) according to manufacturer's instructions. PI3-Kinases (isoforms α, β, γ and δ) catalyze the phosphorylation of phosphatidylinositol, PIP2 to PIP3 in the presence of ATP and Mg^2+. The PIP3 product is detected by displacement of biotin-PIP3 from an energy transfer complex consisting of Europium labeled anti-GST monoclonal antibody, a GST-tagged PH domain, biotinylated PIP3 and Streptavidin-APC. Excitation of Europium in the complex results in an energy transfer to the APC and a fluorescence emission at 665 nm. The PIP3 product displaces biotin-PIP3 from the complex resulting in a loss of energy transfer and thus a decrease in signal.
To test for the ability of compounds to inhibit the activity of PI3Kα (wild-type), exemplary compounds of formula (I) were dissolved in DMSO and directly distributed into 384-well plates at a volume of 0.5 μL. 14.5 μL of P110/P85α/PIP2 mixture in buffer (obtained from the Millipore kit) containing MgCl2 (40 mM) and DTT (5 mM) was added to compound wells and incubated for 60 minutes at room temperature. P110/P85α was expressed in SF9 insect cells and purified nickel column extraction. Five ng of wild-type P110/P85α was used in the assay. The kinase reaction was started by the addition of ATP. The assay concentrations of both PIP2 and ATP were 10 μM. The reaction mixture was incubated for 30 minutes at room temperature and was terminated by the addition of stop mix and detection mix. Fluorescence was measured at 615 and 665 nm upon excitation at 340 nm in a Victor™ V5 fluorometer (Perkin Elmer, USA). The fluorescence emission ratio at 665 to 615 nm, proportional to the kinase activity, was plotted against the compound concentration to generate dose-response curves and IC50 values were determined using GraphPad Prism® 5 software.
(Time-resolved FRET reads energy transfer from a long-lived donor to a nearby acceptor.)

Assay [2] deals with PC3 cells. Description: XTT assay for cell viability, PC3 cells. It counts as cell-based. Particulars: Homo sapiens, PC-3; PC3 cell proliferation, 96 hours. How it is done:
Using a commercial kit from Sigma Aldrich (Catalog #X34251) and following its protocol, PC3 cells in the log phase of growth were employed and seeded at an optimal density of 1000 cell/well on to 96 well plates and incubated for 24 hours followed by the addition of compounds of formula (I) in serial dilutions. Compound dilutions were made in DMSO. The cells were incubated with the compounds of formula (I) for 96 hours and XTT tetrazolium dye (Sigma, USA) was subsequently added and incubated at 37° C. After the color formation, absorbance was measured at 465 nm in a Spectramax® Gemini spectrophotometer. EC50 values were calculated using a sigmoidal dose response curve fit in GraphPad Prism® v5 software. The tested compounds of formula (I) which caused inhibition of PC3 cell proliferation as determined by this assay protocol are shown in Table 2.
(In general: Tetrazolium dyes change colour on reduction, which living cells bring about.)

The target in assay [3] is T2, mTOR kinase (Homo sapiens, UniProt P42345).
T2 construct: purchased Millipore, USA
T2 sequence (P42345 1362-2549 limits assumed): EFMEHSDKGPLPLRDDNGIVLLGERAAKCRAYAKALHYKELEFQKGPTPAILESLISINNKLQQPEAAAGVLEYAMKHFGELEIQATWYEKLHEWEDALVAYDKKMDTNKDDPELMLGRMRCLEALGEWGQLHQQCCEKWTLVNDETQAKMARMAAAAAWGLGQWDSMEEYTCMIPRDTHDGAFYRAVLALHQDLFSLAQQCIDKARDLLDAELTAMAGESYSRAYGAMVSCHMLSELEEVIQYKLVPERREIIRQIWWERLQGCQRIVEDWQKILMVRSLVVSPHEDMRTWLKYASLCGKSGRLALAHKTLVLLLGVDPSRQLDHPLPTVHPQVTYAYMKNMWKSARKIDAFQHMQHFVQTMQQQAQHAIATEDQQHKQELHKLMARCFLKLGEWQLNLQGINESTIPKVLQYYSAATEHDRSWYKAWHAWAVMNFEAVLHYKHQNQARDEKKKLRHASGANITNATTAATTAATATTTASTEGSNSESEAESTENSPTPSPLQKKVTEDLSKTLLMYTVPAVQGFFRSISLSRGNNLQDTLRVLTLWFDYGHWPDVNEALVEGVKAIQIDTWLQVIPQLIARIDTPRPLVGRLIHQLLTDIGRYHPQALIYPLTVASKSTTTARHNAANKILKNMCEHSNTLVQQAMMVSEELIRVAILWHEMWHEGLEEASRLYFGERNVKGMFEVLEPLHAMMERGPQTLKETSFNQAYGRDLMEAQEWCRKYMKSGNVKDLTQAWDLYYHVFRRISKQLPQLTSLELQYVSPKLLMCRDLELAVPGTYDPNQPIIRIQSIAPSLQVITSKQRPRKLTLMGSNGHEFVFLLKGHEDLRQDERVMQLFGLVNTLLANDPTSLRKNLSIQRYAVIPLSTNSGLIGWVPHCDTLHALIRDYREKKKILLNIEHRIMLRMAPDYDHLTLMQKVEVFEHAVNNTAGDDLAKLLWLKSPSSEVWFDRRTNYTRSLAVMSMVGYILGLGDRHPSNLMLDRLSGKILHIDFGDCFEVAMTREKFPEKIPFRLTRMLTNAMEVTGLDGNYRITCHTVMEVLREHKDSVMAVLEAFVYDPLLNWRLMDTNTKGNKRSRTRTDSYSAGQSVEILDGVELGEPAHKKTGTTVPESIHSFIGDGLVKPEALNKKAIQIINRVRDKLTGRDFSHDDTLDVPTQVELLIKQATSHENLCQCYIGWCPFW
Description: mTOR kinase TR-FRET assay. It counts as biochemical. To be noted: 20 μM ATP. How it is done: Compound inhibition for mTOR kinase was determined in a homogeneous TR-FRET assay using the Lance® ULight-p70 S6K (Thr 389) peptide (obtained from Perkin-Elmer). The ULight™-labeled synthetic peptide contains the amino acid residues surrounding Thr389 of human p70 S6K. The ULight-p70 S6K peptide is phosphorylated at Thr389 by mTOR. Phosphorylation motif: LGFTYVAP as substrate.
The compound dilution was carried out in 100% DMSO followed by a buffer dilution. The reaction buffer was HEPES (50 mM pH 7.5), EGTA (1 mM), MnCl2 (3 mM). Test compounds at various concentrations were pre-incubated with mTOR (Millipore, USA; 5 ng) for 60 min, and then the Lance® ULight-p70 S6K (Thr 389) peptide (50 nM) was added along with ATP (20 μM). After incubating the reaction mixture for 60 minutes at room temperature, the kinase reaction was terminated by the addition of EDTA (10 mM) followed by the addition of detection mix, i.e., 1 nM Eu-labeled anti-phospho-substrate antibody (Perkin Elmer, USA). The fluorescence emission at […] was measured upon excitation at 340 nm. IC50 values were subsequently determined using a sigmoidal dose-response curve (variable slope) in GraphPad Prism® 5 software.
Compounds of formula (I) caused inhibition of mTOR kinase activity as determined by this assay.

T1 sequence (P42336 whole entry, species assumed): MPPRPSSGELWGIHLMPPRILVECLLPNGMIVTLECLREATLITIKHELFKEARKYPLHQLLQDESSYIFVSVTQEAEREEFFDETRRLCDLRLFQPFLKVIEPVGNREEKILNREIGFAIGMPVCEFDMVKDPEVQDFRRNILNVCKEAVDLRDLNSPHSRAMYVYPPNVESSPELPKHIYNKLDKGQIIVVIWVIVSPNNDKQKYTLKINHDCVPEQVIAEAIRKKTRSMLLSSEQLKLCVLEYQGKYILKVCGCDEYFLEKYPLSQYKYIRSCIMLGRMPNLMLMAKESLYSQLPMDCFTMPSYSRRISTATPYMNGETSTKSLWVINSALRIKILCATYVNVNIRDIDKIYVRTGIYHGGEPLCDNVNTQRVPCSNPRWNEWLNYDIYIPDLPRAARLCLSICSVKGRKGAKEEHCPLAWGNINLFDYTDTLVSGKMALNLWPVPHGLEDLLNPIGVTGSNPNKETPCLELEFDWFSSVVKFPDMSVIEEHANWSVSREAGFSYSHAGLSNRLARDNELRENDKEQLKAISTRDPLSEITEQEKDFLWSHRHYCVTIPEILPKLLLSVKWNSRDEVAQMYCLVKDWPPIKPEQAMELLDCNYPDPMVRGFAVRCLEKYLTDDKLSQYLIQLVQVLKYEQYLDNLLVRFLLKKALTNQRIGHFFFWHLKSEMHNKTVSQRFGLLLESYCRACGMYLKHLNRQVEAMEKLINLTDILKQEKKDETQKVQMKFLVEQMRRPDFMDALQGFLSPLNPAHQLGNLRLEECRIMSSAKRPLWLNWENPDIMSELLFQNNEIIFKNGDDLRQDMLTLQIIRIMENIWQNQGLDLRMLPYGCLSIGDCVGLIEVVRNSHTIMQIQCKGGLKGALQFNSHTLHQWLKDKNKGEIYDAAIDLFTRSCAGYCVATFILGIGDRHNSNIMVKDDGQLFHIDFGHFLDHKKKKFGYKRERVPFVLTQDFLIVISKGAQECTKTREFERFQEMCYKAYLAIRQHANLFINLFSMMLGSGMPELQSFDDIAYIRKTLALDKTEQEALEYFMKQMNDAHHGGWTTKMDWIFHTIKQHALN
T1 sequence (P27986 whole entry partner, species assumed): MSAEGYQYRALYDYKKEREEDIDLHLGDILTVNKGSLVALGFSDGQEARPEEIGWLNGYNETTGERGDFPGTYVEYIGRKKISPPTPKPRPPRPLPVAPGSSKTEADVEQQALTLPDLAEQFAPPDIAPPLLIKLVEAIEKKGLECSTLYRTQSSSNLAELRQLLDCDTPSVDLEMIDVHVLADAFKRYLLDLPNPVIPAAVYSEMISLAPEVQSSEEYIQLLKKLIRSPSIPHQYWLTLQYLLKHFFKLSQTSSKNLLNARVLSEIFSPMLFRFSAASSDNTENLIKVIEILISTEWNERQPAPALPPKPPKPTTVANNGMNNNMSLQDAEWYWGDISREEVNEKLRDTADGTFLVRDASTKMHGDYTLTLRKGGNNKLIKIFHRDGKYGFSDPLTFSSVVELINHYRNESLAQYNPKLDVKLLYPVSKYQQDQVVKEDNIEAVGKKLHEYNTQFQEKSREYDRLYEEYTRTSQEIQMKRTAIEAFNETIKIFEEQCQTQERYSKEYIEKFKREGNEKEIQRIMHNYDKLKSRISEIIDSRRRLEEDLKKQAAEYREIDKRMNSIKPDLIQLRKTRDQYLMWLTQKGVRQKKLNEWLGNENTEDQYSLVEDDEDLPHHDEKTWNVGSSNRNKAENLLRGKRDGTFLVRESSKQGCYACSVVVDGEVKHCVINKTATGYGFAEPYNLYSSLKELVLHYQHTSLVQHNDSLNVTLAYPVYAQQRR

In the case of `Nc1ncc(-c2nc(N3CCOCC3)c3ncc(-c4ccco4)cc3n2)cn1` [Example 25, 5-(7-(furan-2-yl)-4-morpholinopyrido[3,2-d]-pyrimidin-2-yl)pyrimidin-2-amine], the IC50 was less than 50 nM in assay [1], 100 to 500 nM in assay [2] and less than 50 nM in assay [3].
On to `Nc1ncc(-c2nc(N3CCOCC3)c3ncc(-c4cccc(C(=O)N5CCN(CCO)CC5)c4)cc3n2)cn1` [Example 116, (3-(2-(2-aminopyrimidin-5-yl)-4-morpholinopyrido[3,2-d]-pyrimidin-7-yl)phenyl)(4-(2-hydroxyethyl)piperazin-1-yl)methanone], for which the IC50 was less than 50 nM in assay [1], 501 to 5000 nM in assay [2] and 201 to 10000 nM in assay [3].
On to `Cn1cc(-c2ccc3c(N4CCOCC4)nc(-c4cnc(N)nc4)nc3c2)cn1` [Example 14, 5-(7-(1-methyl-1H-pyrazol-4-yl)-4-morpholinoquinazolin-2-yl)pyrimidin-2-amine], for which the values for the IC50 in assay [1], in assay [2] and in assay [3] were 201 to 10000 nM, 501 to 5000 nM and 201 to 10000 nM, respectively.
On to `CN1CCN(CC(=O)Nc2cccc(-c3cnc4c(N5CCOCC5)nc(-c5cnc(N)nc5)nc4c3)c2)CC1` [Example 83, N-(3-(2-(2-aminopyrimidin-5-yl)-4-morpholinopyrido[3,2-d]pyrimidin-7-yl)phenyl)-2-(4-methylpiperazin-1-yl)acetamide], for which the IC50 in assay [1] was less than 50 nM; in assay [2] it was 100 to 500 nM; in assay [3] it was 50 to 200 nM.
The like results for `CC(=O)Nc1ccc(F)c(-c2cnc3c(N4CCOCC4)nc(-c4cnc(N)nc4)nc3c2)c1F` [Example 123, N-(3-(2-(2-amino-pyrimidin-5-yl)-4-morpholinopyrido[3,2-d]pyrimidin-7-yl)-2,4-difluorophenyl)acetamide] were, in that order, less than 50 nM, 100 to 500 nM and 50 to 200 nM.
For `Nc1ncc(-c2nc(N3CCOCC3)c3ncc(-c4cccc(NC(=O)C56CC7CC(CC(C7)C5)C6)c4)cc3n2)cn1` [Example 65, N-(3-(2-(2-amino-pyrimidin-5-yl)-4-morpholinopyrido[3,2-d]pyrimidin-7-yl)-phenyl)adamantane-1-carboxamide], in that order: less than 50 nM, 501 to 5000 nM and 201 to 10000 nM.
For `Nc1ncc(-c2nc(N3CCOCC3)c3ncc(-c4ccc(C(=O)Nc5cccnc5)o4)cc3n2)cn1` [Example 34, 5-(2-(2-aminopyrimidin-5-yl)-4-morpholino-pyrido[3,2-d]pyrimidin-7-yl)-N-(pyridin-3-yl)furan-2-carboxamide], in that order: less than 50 nM, 100 to 500 nM and less than 50 nM.
As for `CN1CCN(C(=O)Nc2cccc(-c3cnc4c(N5CCOCC5)nc(-c5cnc(N)nc5)nc4c3)c2)CC1` [Example 89, N-(3-(2-(2-aminopyrimidin-5-yl)-4-morpholinopyrido[3,2-d]pyrimidin-7-yl)phenyl)-4-methylpiperazine-1-carboxamide], the concentration for half-maximal inhibition (IC50) in assay [1] is less than 50 nM; in assay [2], 501 to 5000 nM; in assay [3], less than 50 nM.
For the molecule `CS(=O)(=O)Nc1cccc(-c2ccc3c(N4CCOCC4)nc(-c4cnc(N)nc4)nc3c2)c1` [Example 16, N-(3-(2-(2-amino-pyrimidin-5-yl)-4-morpholinoquinazolin-7-yl)phenyl)methane-sulfonamide], the IC50 in assay [1] was 50 to 200 nM; in assay [2], 501 to 5000 nM; in assay [3], less than 50 nM.
For `Nc1ncc(-c2nc(N3CCOCC3)c3ncc(-c4ccc(C(=O)Nc5ccncc5)cc4)cc3n2)cn1` [Example 38, 4-(2-(2-aminopyrimidin-5-yl)-4-morpholino-pyrido[3,2-d]pyrimidin-7-yl)-N-(pyridin-4-yl)-benzamide], in that order: less than 50 nM, more than 1000 nM and 50 to 200 nM.
For `Cc1ccc(-c2cnc3c(N4CCOCC4)nc(-c4cnc(N)nc4)nc3c2)o1` [Example 26, 5-(7-(5-methylfuran-2-yl)-4-morpholino-pyrido[3,2-d]pyrimidin-2-yl)pyrimidin-2-amine], in that order: less than 50 nM, 501 to 5000 nM and 50 to 200 nM.
For `Nc1ncc(-c2nc(N3CCOCC3)c3ncc(-c4cccc(C(=O)NC5CC5)c4)cc3n2)cn1` [Example 98, 3-(2-(2-aminopyrimidin-5-yl)-4-morpholinopyrido[3,2-d]-pyrimidin-7-yl)-N-cyclopropylbenzamide], in that order: less than 50 nM, 100 to 500 nM and less than 50 nM.
Consider `Nc1ncc(-c2nc(N3CCOCC3)c3ncc(-c4cccc(C(=O)Nc5ccncc5F)c4)cc3n2)cn1` [Example 97, 3-(2-(2-aminopyrimidin-5-yl)-4-morpholinopyrido[3,2-d]-pyrimidin-7-yl)-N-(3-fluoropyridin-4-yl)-benzamide], for which the IC50 in assay [1] was less than 50 nM; in assay [2] it was 100 to 500 nM; in assay [3], less than 50 nM.
Take `CC(C)(O)C(=O)N1CCN(c2cccc(-c3cnc4c(N5CCOCC5)nc(-c5cnc(N)nc5)nc4c3)c2)CC1` [Example 108, 1-(4-(3-(2-(2-amino-pyrimidin-5-yl)-4-morpholinopyrido[3,2-d]pyrimidin-7-yl)-phenyl)piperazin-1-yl)-2-hydroxy-2-methylpropan-1-one]: the figures for the IC50 in assay [1], in assay [2] and in assay [3] were less than 50 nM, 100 to 500 nM and less than 50 nM, respectively.
For `Nc1ncc(-c2nc(N3CCOCC3)c3ncc(-c4cccc(N5CCN(CCO)CC5)c4)cc3n2)cn1` [Example 113, 2-(4-(3-(2-(2-amino-pyrimidin-5-yl)-4-morpholinopyrido[3,2-d]pyrimidin-7-yl)-phenyl)piperazin-1-yl)-ethanol], the half-inhibitory concentration (IC50) in assay [1] was less than 50 nM; in assay [2] it was 501 to 5000 nM; in assay [3], less than 50 nM.
For `Nc1ncc(-c2nc(N3CCOCC3)c3ncc(-c4cccc(NC(=O)C5CCCCC5)c4)cc3n2)cn1` [Example 60, N-(3-(2-(2-amino-pyrimidin-5-yl)-4-morpholinopyrido[3,2-d]pyrimidin-7-yl)-phenyl)cyclohexane-carboxamide], the IC50 was less than 50 nM in assay [1], 501 to 5000 nM in assay [2] and 50 to 200 nM in assay [3].
With `Nc1ncc(-c2nc(N3CCOCC3)c3ncc(-c4cccc(NC(=O)C5CC5)c4F)cc3n2)cn1` [Example 115, N-(3-(2-(2-amino-pyrimidin-5-yl)-4-morpholinopyrido[3,2-d]pyrimidin-7-yl)-2-fluorophenyl)-cyclopropane-carboxamide], the concentration for half-maximal inhibition (IC50) in assay [1] is less than 50 nM; in assay [2], 100 to 500 nM; in assay [3], less than 50 nM.
Turning to `CC(=O)Nc1ccc(F)c(-c2cnc3c(N4CCOCC4)nc(-c4cnc(N)nc4)nc3c2)c1` [Example 55, N-(3-(2-(2-amino-pyrimidin-5-yl)-4-morpholinopyrido[3,2-d]pyrimidin-7-yl)-4-fluorophenyl)acetamide], the IC50 was less than 50 nM in assay [1], 100 to 500 nM in assay [2] and 50 to 200 nM in assay [3].
For the molecule `CC(=O)Nc1cccc(-c2ccc3c(N4CCOCC4)nc(-c4cnc(N)nc4)nc3c2)c1` [Example 13, N-(3-(2-(2-amino-pyrimidin-5-yl)-4-morpholinoquinazolin-7-yl)phenyl)acetamide], the IC50 in assay [1] was 201 to 10000 nM; in assay [2] it was 501 to 5000 nM; in assay [3], 50 to 200 nM.

Values taken from patent US9145411B2, “Substituted amino-pyrimidine derivatives” (Asana Biosciences, LLC, priority 2012, dated 2015).
